{"source": "patent US20160346249A1", "about": "(priority 2012, published 2016)", "assay": "Single rising oral dose (10-150 mg IR) safety, tolerance and pharmacokinetics in healthy male volunteers", "type": "in vivo, human", "description": "Fifty (50) healthy male adult volunteers, between the ages of 19 and 43 years (mean±SD: 28±6 years) were enrolled in the study and randomized to the […] different treatments. […] The subjects were divided into panels of 10 subjects/dose group. Seven subjects in each group received the test drug, while three received an identical-looking placebo. […] The five treatments are outlined below:\nThe subjects were admitted to the clinic the night before dose administration and fasted from approximately 10 hour before to 4 hour after ingestion of the study capsules. Treatments were administered with 240 mL of mineral water between 08:00 and 09:00 hours. […] The assay calibration range was 5 to 2,000 ng/mL.\nThe values of Cmax and Tmax were the observed value for each subject. The terminal elimination rate constant λz was derived from the log-linear disposition phase of the concentration-time curve using linear least-squares regression for which the program determined the appropriate number of terminal points to calculate λz. At least three terminal plasma concentrations were used for estimating λz. The t1/2 (HL_Lambda_z) was calculated as ln 2/λz. AUC0-t and AUMC0-t were determined using the linear trapezoidal rule for each increasing concentration and the log-trapezoidal rule for descending concentrations. The AUC values from the last quantifiable time point to infinity was calculated as Ct/λz. This value was added to AUC0-t to obtain AUC0-∞. […] Oral clearance was calculated as Dose/AUC0-∞. The 90% confidence intervals were calculated for all of the variables.\nSAS, version 8.2, was used for the analysis.", "key": {"[1]": {"settings": "10 mg, individual subject, listed as DOV 21,947"}, "[2]": {"settings": "25 mg, individual subject, listed as DOV 21,947"}, "[3]": {"settings": "50 mg, individual subject, listed as DOV 21,947"}, "[4]": {"settings": "100 mg, individual subject, listed as DOV 21,947"}, "[5]": {"settings": "150 mg, individual subject, listed as DOV 21,947"}}, "note": "“And” between values parts separate entries of the source, which are not always exact repeats. Equal values may be shown once."}
{"molecule": "Clc1ccc([C@]23CNC[C@H]2C3)cc1Cl", "note": "[amitifadine, (+)-1-(3,4-dichlorophenyl)-3-azabicyclo[3.1.0]hexane]", "values": [{"measurement": "λ2", "setting": "10 mg, Geometric Mean", "value": 0.204, "unit": "h⁻¹"}, {"measurement": "AUC0-∞", "setting": "10 mg, Maximum", "value": 551, "unit": "ng·h/mL"}, {"measurement": "AUC(0-t)", "setting": "10 mg, Maximum", "value": 492, "unit": "ng·h/mL"}, {"measurement": "MRT0-∞", "setting": "10 mg, Maximum", "value": 6.09, "unit": "h"}, {"measurement": "t1/2", "setting": "10 mg, Maximum", "value": 3.90, "unit": "h"}, {"measurement": "λ2", "setting": "10 mg, Maximum", "value": 0.233, "unit": "h⁻¹"}, {"measurement": "λz", "setting": "10 mg, Mean (n = 7)", "value": 0.205, "unit": "h⁻¹"}, {"measurement": "λ2", "setting": "10 mg, Median", "value": 0.200, "unit": "h⁻¹"}, {"measurement": "AUC0-∞", "setting": "10 mg, Minimum", "value": 257, "unit": "ng·h/mL"}, {"measurement": "AUC(0-t)", "setting": "10 mg, Minimum", "value": 227, "unit": "ng·h/mL"}, {"measurement": "MRT0-∞", "setting": "10 mg, Minimum", "value": 4.72, "unit": "h"}, {"measurement": "t1/2", "setting": "10 mg, Minimum", "value": 2.98, "unit": "h"}, {"measurement": "λ2", "setting": "10 mg, Minimum", "value": 0.178, "unit": "h⁻¹"}, {"measurement": "MRT0-∞", "setting": "[1]", "value": "5.47 h and 4.72 h and 6.09 h and 4.84 h"}, {"measurement": "t1/2", "setting": "[1]", "value": "3.63 h and 3.90 h and 3.09 h and 2.98 h and 3.79 h and 3.08 h"}, {"measurement": "λ2", "setting": "[1]", "value": "0.200 hr^−1 and 0.191 hr^−1 and 0.178 hr^−1 and 0.225 hr^−1 (2×) and 0.233 hr^−1 and 0.183 hr^−1"}, {"measurement": "λ2", "setting": "25 mg, Geometric Mean", "value": 0.234, "unit": "h⁻¹"}, {"measurement": "AUC0-∞", "setting": "25 mg, Maximum", "value": 2350, "unit": "ng·h/mL"}, {"measurement": "AUC(0-t)", "setting": "25 mg, Maximum", "value": 2220, "unit": "ng·h/mL"}, {"measurement": "MRT0-∞", "setting": "25 mg, Maximum", "value": 6.46, "unit": "h"}, {"measurement": "t1/2", "setting": "25 mg, Maximum", "value": 5.25, "unit": "h"}, {"measurement": "λ2", "setting": "25 mg, Maximum", "value": 0.493, "unit": "h⁻¹"}, {"measurement": "λz", "setting": "25 mg, Mean (n = 7)", "value": 0.251, "unit": "h⁻¹"}, {"measurement": "AUC(0-t)", "setting": "25 mg, Mean (n = 7), listed as DOV 21,947", "value": 1380, "unit": "ng·h/mL"}, {"measurement": "λ2", "setting": "25 mg, Median", "value": 0.231, "unit": "h⁻¹"}, {"measurement": "AUC0-∞", "setting": "25 mg, Minimum", "value": 1080, "unit": "ng·h/mL"}, {"measurement": "AUC(0-t)", "setting": "25 mg, Minimum", "value": 995, "unit": "ng·h/mL"}, {"measurement": "MRT0-∞", "setting": "25 mg, Minimum", "value": 4.26, "unit": "h"}, {"measurement": "t1/2", "setting": "25 mg, Minimum", "value": 1.41, "unit": "h"}, {"measurement": "λ2", "setting": "25 mg, Minimum", "value": 0.132, "unit": "h⁻¹"}, {"measurement": "MRT0-∞", "setting": "[2]", "value": "4.26 h and 6.46 h and 4.98 h and 4.29 h and 4.39 h"}, {"measurement": "λ2", "setting": "[2]", "value": "0.222 hr^−1 and 0.231 hr^−1 (2×) and 0.132 hr^−1 and 0.191 hr^−1 and 0.258 hr^−1 and 0.493 hr^−1"}, {"measurement": "λ2", "setting": "50 mg, Geometric Mean", "value": 0.190, "unit": "h⁻¹"}, {"measurement": "AUC0-∞", "setting": "50 mg, Maximum", "value": 3270, "unit": "ng·h/mL"}, {"measurement": "AUC(0-t)", "setting": "50 mg, Maximum", "value": 3220, "unit": "ng·h/mL"}, {"measurement": "MRT0-∞", "setting": "50 mg, Maximum", "value": 5.66, "unit": "h"}, {"measurement": "t1/2", "setting": "50 mg, Maximum", "value": 4.39, "unit": "h"}, {"measurement": "λ2", "setting": "50 mg, Maximum", "value": 0.245, "unit": "h⁻¹"}, {"measurement": "λz", "setting": "50 mg, Mean (n = 7)", "value": 0.192, "unit": "h⁻¹"}, {"measurement": "λ2", "setting": "50 mg, Median", "value": 0.191, "unit": "h⁻¹"}, {"measurement": "AUC0-∞", "setting": "50 mg, Minimum", "value": 1690, "unit": "ng·h/mL"}, {"measurement": "AUC(0-t)", "setting": "50 mg, Minimum", "value": 1530, "unit": "ng·h/mL"}, {"measurement": "MRT0-∞", "setting": "50 mg, Minimum", "value": 4.38, "unit": "h"}, {"measurement": "t1/2", "setting": "50 mg, Minimum", "value": 2.62, "unit": "h"}, {"measurement": "λ2", "setting": "50 mg, Minimum", "value": 0.158, "unit": "h⁻¹"}, {"measurement": "MRT0-∞", "setting": "[3]", "value": "4.38 h and 5.43 h and 5.22 h and 5.60 h and 5.66 h"}, {"measurement": "λ2", "setting": "[3]", "value": "0.213 h⁻¹ and 0.245 h⁻¹ and 0.199 h⁻¹ and 0.158 h⁻¹ and 0.191 h⁻¹ and 0.167 h⁻¹ and 0.170 h⁻¹"}, {"measurement": "λ2", "setting": "100 mg, Geometric Mean", "value": 0.167, "unit": "h⁻¹"}, {"measurement": "AUC0-∞", "setting": "100 mg, Maximum", "value": 5960, "unit": "ng·h/mL"}, {"measurement": "AUC(0-t)", "setting": "100 mg, Maximum", "value": 5900, "unit": "ng·h/mL"}, {"measurement": "MRT0-∞", "setting": "100 mg, Maximum", "value": 7.03, "unit": "h"}, {"measurement": "t1/2", "setting": "100 mg, Maximum", "value": 4.35, "unit": "h"}, {"measurement": "λ2", "setting": "100 mg, Maximum", "value": 0.177, "unit": "h⁻¹"}, {"measurement": "λz", "setting": "100 mg, Mean (n = 7)", "value": 0.167, "unit": "h⁻¹"}, {"measurement": "λ2", "setting": "100 mg, Median", "value": 0.164, "unit": "h⁻¹"}, {"measurement": "AUC0-∞", "setting": "100 mg, Minimum", "value": 4030, "unit": "ng·h/mL"}, {"measurement": "AUC(0-t)", "setting": "100 mg, Minimum", "value": 3960, "unit": "ng·h/mL"}, {"measurement": "MRT0-∞", "setting": "100 mg, Minimum", "value": 4.85, "unit": "h"}, {"measurement": "t1/2", "setting": "100 mg, Minimum", "value": 3.92, "unit": "h"}, {"measurement": "λ2", "setting": "100 mg, Minimum", "value": 0.159, "unit": "h⁻¹"}, {"measurement": "MRT0-∞", "setting": "[4]", "value": "7.03 h and 5.71 h and 5.63 h and 4.85 h"}, {"measurement": "λ2", "setting": "[4]", "value": "0.176 hr^−1 and 0.162 hr^−1 and 0.173 hr^−1 and 0.159 hr^−1 (2×) and 0.164 hr^−1 and 0.177 hr^−1"}, {"measurement": "λ2", "setting": "150 mg, Geometric Mean", "value": 0.191, "unit": "h⁻¹"}, {"measurement": "AUC0-∞", "setting": "150 mg, Maximum", "value": 11100, "unit": "ng·h/mL"}, {"measurement": "AUC(0-t)", "setting": "150 mg, Maximum", "value": 10900, "unit": "ng·h/mL"}, {"measurement": "MRT0-∞", "setting": "150 mg, Maximum", "value": 7.14, "unit": "h"}, {"measurement": "t1/2", "setting": "150 mg, Maximum", "value": 4.87, "unit": "h"}, {"measurement": "λ2", "setting": "150 mg, Maximum", "value": 0.288, "unit": "h⁻¹"}, {"measurement": "λz", "setting": "150 mg, Mean (n = 7)", "value": 0.195, "unit": "h⁻¹"}, {"measurement": "t1/2", "setting": "150 mg, Mean (n = 7), listed as DOV 21,947", "value": 3.91, "unit": "h"}, {"measurement": "λ2", "setting": "150 mg, Median", "value": 0.189, "unit": "h⁻¹"}, {"measurement": "AUC0-∞", "setting": "150 mg, Minimum", "value": 6590, "unit": "ng·h/mL"}, {"measurement": "AUC(0-t)", "setting": "150 mg, Minimum", "value": 6390, "unit": "ng·h/mL"}, {"measurement": "MRT0-∞", "setting": "150 mg, Minimum", "value": 4.66, "unit": "h"}, {"measurement": "t1/2", "setting": "150 mg, Minimum", "value": 2.41, "unit": "h"}, {"measurement": "λ2", "setting": "150 mg, Minimum", "value": 0.142, "unit": "h⁻¹"}, {"measurement": "MRT0-∞", "setting": "[5]", "value": "7.03 h and 6.70 h and 4.66 h and 7.14 h"}, {"measurement": "λ2", "setting": "[5]", "value": "0.177 h⁻¹ and 0.142 h⁻¹ and 0.189 h⁻¹ and 0.288 h⁻¹ and 0.200 h⁻¹ and 0.159 h⁻¹ and 0.209 h⁻¹"}, {"measurement": "variability of Cmax and AUC", "setting": "all doses", "value": "≤ 30", "unit": "%"}, {"measurement": "MRT inf", "setting": "human, plasma, oral, 10 mg, individual subject, read-out: MRT0-∞", "value": 5.36, "unit": "h"}]}
